Measurements published in patent US10662193B2, “Carbazole and carboline compounds for use in the diagnosis, treatment, alleviation or prevention of disorders associated with amyloid or amyloid-like proteins” (AC IMMUNE SA, priority 2014, dated 2020).

Assays:
[1] = tested on: tau tangles/Aβ plaques on AD brain sections; test: Assay 1: direct staining of human Alzheimer's disease brain sections (fluorescence); format: binding; parameters: key to Direct staining of tau tangles/Aβ plaques on AD brain sections at 100 μM / Direct staining of tau tangles on AD brain sections at 100 μM / Direct staining of Aβ plaques on AD brain sections at 100 μM / Direct staining of tau tangles on AD brain sections (footnote a: at 250 μM): − (No); +++ (strong); ++ (good); + (weak); conditions: tangles; for Direct staining of tau tangles on AD brain sections at 100 μM: 100 μM compound
Method in brief: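 Frozen […] amygdala sections from Braak V-VI AD donors, PFA-fixed, incubated with compound at 100 μM in 50% ethanol for 20 min at room temperature in the dark. Sudan Black quenched autofluorescence, then staining detected by fluorescence microscopy.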

[2] = tested on: tau tangles on AD brain section; test: Assay 1: displacement of RefA on human AD brain sections (fluorescence); format: binding; conditions: for Selectivity (tau/Abeta): ratio of competition on tau tangles to competition on Aβ plaques
Method in brief: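 Braak V-VI AD amygdala frozen sections were preincubated with test compound at 250 μM in 50% ethanol for 20 min at room temperature. Fluorescent RefA at 1 μM in 50% ethanol was then added for 20 min, imaged at 470 nm excitation, and tangles were quantified.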

AD brain-enriched PHF = AD brain-enriched PHF (Homo sapiens, UniProt P10636); test: Assay 2 (filter trap): [3H]RefA radio-binding competition assay and Ki on PHF; conditions: [^3H]RefA 10 nM, PHF diluted 1/80, compound 0.12 nM to 50 μM
Experimental: Displacement of [^3H]RefA by Compounds of this Invention
50 g of frontal lobe tissue from post-mortem brain of an Alzheimer's disease (AD) patient were obtained from the London Tissue Bank. The patient was a […] and died […]. The brain sample was collected 5 hours post-mortem and characterized for Braak disease stage (Braak, H.; Braak, E. Acta Neuropathol., 1991, 82, 239-259) as stage VI. For the enrichment of PHF's, around 15 g of the AD human brain was thawed on ice and homogenized with 50 ml of homogenization buffer [0.75 M NaCl in RAB buffer (100 mM 2-(N-morpholino) ethanesulfonic acid (MES), 1 mM EGTA, 0.5 mM MgSO4, 2 mM DTT, pH 6.8) supplemented with protease inhibitors (Complete; Roche 11697498001) in a glass Dounce homogenizer. The homogenate was then incubated at 4° C. for 20 min to let any residual microtubules depolymerize, before the homogenate was transferred into polycarbonate centrifuge bottles (16×76 mm; Beckman 355603) and centrifuged at 11,000 g (12,700 RPM) in an ultracentrifuge (Beckman, XL100K) for 20 min at 4° C. using the pre-cooled 70.1 rotor (Beckman, 342184). Pellets were kept on ice. Supernatants were pooled into polycarbonate bottles and centrifuged again at 100,000 g (38,000 RPM) for 1 h at 4° C. in the 70.1 Ti rotor to isolate PHF-rich pellets, whereas soluble tau remained in the supernatants. The pellets from the first and second centrifugations were re-suspended in 120 mL of extraction buffer [10 mM Tris-HCl pH 7.4, 10% sucrose, 0.85 M NaCl, 1% protease inhibitor (Calbiochem 539131), 1 mM EGTA, 1% phosphatase inhibitor (Sigma P5726 and P0044)]. The solution was then transferred into polycarbonate centrifuge bottles (16×76 mm; Beckman 355603) and centrifuged at 15,000 g (14,800 RPM) in an ultracentrifuge (Beckman, XL100K) for 20 min at 4° C. using the 70.1 Ti rotor. In the presence of 10% sucrose and at low speed centrifugation, most PHF remained in the supernatant whereas intact or fragmented NFTs and larger PHF aggregates were pelleted. The pellets were discarded. 20% Sarkosyl (Sigma L7414-10ML) was added to the supernatants to a final concentration of 1% and stirred at room temperature for 1 h. This solution was then centrifuged into polycarbonate bottles at 100,000 g (38,000 RPM) for 1 h at 4° C. in the 70.1 Ti rotor, and the pellets containing PHF-rich material were re-suspended in a total final volume of 1.5 mL of PBS, aliquoted and stored at −80° C.
[^3H]RefA Radio-Binding Competition Assay
AD brain-enriched PHF diluted 1/80 were incubated in the presence of [^3H]RefA at 10 nM and the example compounds of this invention at 2.5 μM (250× excess), for 45 minutes at 37° C. Samples were then analyzed by on GF/B filter plates as described above (in the section “[^3H]RefA radio-binding assay and determination of the dissociation constant (Kd)). Non-specific signal was determined again with an excess of un-labeled RefA and specific binding calculated by subtracting the non-specific signal from the total signal. Competition was calculated as percent, where 0% was defined as the specific binding in the presence of vehicle (2.8% DMSO in PBS) and 100% as the values obtained in the presence of excess cold RefA. Similar assays were performed to determine the competition of the cold compounds on [^3H]RefA on in vitro aggregated recombinant human tau or Abeta1-42 For both recombinant proteins, 20 μg/mL of aggregates were incubated with 10 nM of [^3H]RefA for recombinant human tau or 80 nM of [^3H]RefA for recombinant human Abeta1-42.
Determination of the Binding Affinity (Ki)
Samples were then analyzed on GF/B filter plates as described above and Ki values calculated using Prism V5 (GraphPad).

AD brain-enriched PHF, sequence (P10636 623-708 limits assumed): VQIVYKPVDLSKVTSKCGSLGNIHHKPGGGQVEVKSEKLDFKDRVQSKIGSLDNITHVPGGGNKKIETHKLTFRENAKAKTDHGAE

Competition on AD brain section tau tangles (1 μM RefA vs. 250 μM compound) [2] [%] | Selectivity (tau/Abeta) [2] [fold] | Ki (AD brain-enriched PHF) [nM] | SMILES | Direct staining of tau tangles on AD brain sections (footnote a: at 250 μM) ([1]; 250 μM compound) | Direct staining of tau tangles on AD brain sections at 100 μM [1]
96 | >96 | 22 | Cn1c2ccncc2c2ccc(Nc3ccc(F)c(F)c3)nc21 [Example 2] | + (tangles)^a | 
90 | ~15 | 26 | Cn1c2ccncc2c2ccc(Nc3cccc(OCCF)c3)nc21 [Example 8] |  | ++ (tangles)
97 | >97 | 7.8 | Cn1c2ccncc2c2ccc(Nc3ccc(OC(F)F)cc3)nc21 [Example 9] |  | ++ (tangles)
